Assay results: patent publication US7842702B2, “Treatment for irritable bowel syndrome” (Astellas Pharma Inc., priority 2007, dated 2010)
Converted amounts (≈) assume the structure as drawn.

Key:
rat abdominal mast cells = test: Release of histamine by an antigen-antibody reaction using rat abdominal mast cells (degranulation); type: cell-based; settings: Mast cell, fluorescent method with o-phthalaldehyde, read-out: Degranulation (mast cells) (IC50 μg/ml)
Protocol: In addition, the inhibitory effects of compound 1 and cromolyn on the release of histamine by an antigen-antibody reaction using rat abdominal mast cells were measured by a fluorescent method which is a modified method of Shore et al. (The Journal of Pharmacology and Experimental Therapeutics, 1959, vol. 127, pp. 182-186) with o-phthalaldehyde.

[1] = system: restraint stress-induced defecation in the acetic acid-induced IBS model; test: Restraint stress-induced defecation in the acetic acid-induced IBS model; type: in vivo, rat; settings: for ED50: Rattus norvegicus, male SD rats, 4% acetic acid IBS model, 30 min before restraint, stools for 1 hour; for ED50 / inhibitory effects on restraint stress-induced defecation (dose dependence): compound 1 po, cromolyn ip; for inhibitory effects on restraint stress-induced defecation (dose dependence): FIGS. 2 and 3
Protocol: (§1) Preparation of an IBS model was carried out by the following method with reference to the method of Jun-Ho La et al. (World J. Gastroenterol., 2003, vol. 9 (12), pp. 2791-2795). Male Sprague-Dawley (SD) rats or Wistar rats after an overnight fast were used. Colitis was induced by intracolonic instillation of 1 ml 4% acetic acid at 8 cm proximal to the anus for 30 seconds under light ether anesthesia. Then, 1 ml physiological saline was instilled to dilute the acetic acid and flush the colon twice. Rats were recovered from colitis for 6 days, and used for experiments shown in Examples 2 and 3 at 7 days after induction of colitis as “IBS rat (4% acetic acid)”. In addition, rats received physiological saline instead of acetic acid was used as a “control group (saline)”.
Cromolyn was used by dissolving it in physiological saline, and compound 1 and ketotifen were used by dissolving them in 0.5% methylcellulose aqueous solution, respectively. Each compound was intraperitoneally administered (cromolyn) or orally administered (compound 1 and ketotifen) to male SD rats under no fasting at 7 days after the 4% acetic acid treatment or physiological saline treatment. The animals were put into restraint stress cages (product name: KN-468 (B), mfd. by Natsume Seisakusho) 30 minutes thereafter and the number and weight of the stools excreted for 1 hour were measured (“stress”). On the other hand, the normal group was put into individual cage and the number and weight of the stools excreted for 1 hour were measured in the same manner (“normal”). Results of the restraint stress-induced defecation in the agent-nonadministered group are shown in FIG. 1, and the results of agent-administered groups in FIGS. 2 to 4 respectively.

[2] = system: spontaneous defecation in mice; settings: mouse, in vivo
Protocol: Doxantrazole was used by dissolving it in 5% (w/v) NaHCO3 aqueous solution, and compound 1 was used by dissolving it in 0.5% methylcellulose aqueous solutions Male ddY mice under no fasting were reared in individual cages from the evening of the previous day of the experiment. On the day of the experiment, each compound was administered intraperitoneally (doxantrazole) or orally (compound 1), and the number of stools spontaneously excreted for 2 hours after the initiation of the experiment was measured.

[3] = system: abdominal contractions caused by colorectal distention in the acetic acid-induced IBS model; test: Viscerosensory response to colorectal distention (number of abdominal contractions) in the acetic acid-induced IBS model; type: in vivo, rat; settings: for inhibitory effects on abdominal contractions, concomitant use with alosetron: alosetron 0.1 mg/kg, po + compound 1 0.01 mg/kg, po or cromolyn 20 mg/kg, ip, FIG. 8
Protocol: as §1
Male Wistar rats under no fasting at 7 days after 4% acetic acid treatment or physiological saline treatment were used. Under light ether anesthesia, a latex balloon of 6 cm in length was inserted intra-anally until the end of the balloon was 2 cm inside the rectum. The catheter connecting from the balloon was fixed to the tail base with a tape and connected to a pressure transducer via a three-way cock. After restoration from the ether anesthesia in a cage (23.5×19×19 cm), nociceptive behavior (the number of abdominal contractions) to colorectal distention (15, 30, 45, 60 mmHg) applied stepwise at 5 minute intervals was measured. […] In this connection, each compound was administered 30 minutes before the colorectal distention.

IBS patients = settings: cited from earlier work

Compound	IC50 (rat abdominal mast cells) [µg/mL]	ED50 [1] [mg/kg]	inhibitory effects on restraint stress-induced defecation (dose dependence) [1]	effect on the spontaneous defecation in mice [2]	inhibitory effects on abdominal contractions, concomitant use with alosetron [3]	other results
O=C(Nc1nnn[nH]1)c1cc(Oc2ccccc2)c2ccccn2c1=O [Compound 1, N-(1H-tetrazol-5-yl)-1-phenoxy-4H-quinolizin-4-one-3-carboxamide]	0.0074 (≈ 0.0212 µM)	0.0071	in a dose-dependent manner	no effect	additively	inhibition of restraint stress-induced defecation at 1 mg/kg, po ([1]; 1 mg/kg, po): inhibited it almost completely; inhibitory effects on abdominal contractions, concomitant use with ramosetron ([3]; compound 1 0.01 mg/kg, po + ramosetron 0.01 mg/kg, po, FIG. 7): additively; inhibitory effects on the abdominal contractions caused by the colorectal distention ([3]; male Wistar rats, 0.01 and 1 mg/kg, po, 30 min before distention, FIG. 6): dose-dependent inhibitory effects
O=C(O)c1cc(=O)c2c(OCC(O)COc3cccc4oc(C(=O)O)cc(=O)c34)cccc2o1 [Cromolyn, sodium cromoglycate]	2.2	19.9	in a dose-dependent manner	–	reinforcement of the effect was not found	inhibition of restraint stress-induced defecation at 100 mg/kg, ip ([1]; 100 mg/kg, ip): inhibited it almost completely
Cc1[nH]cnc1CN1CCc2c(c3ccccc3n2C)C1=O [alosetron]	–	–	–	–	–	improvement rate for abdominal symptoms and diarrhea (IBS patients): about 50%; inhibitory effects on abdominal contractions, alosetron alone ([3]; 0.1 mg/kg, po): maximal inhibitory effects
O=C1c2ccccc2S(=O)(=O)c2cc(-c3nnn[nH]3)ccc21 [doxantrazole]	–	–	–	inhibitory tendency	–	–
CN1CCC(=C2c3ccccc3CC(=O)c3sccc32)CC1 [ketotifen]	–	–	–	–	–	inhibitory effects on restraint stress-induced defecation at the maximum ([1]; po, maximum effect, FIG. 4): about 30%
Cn1cc(C(=O)[C@@H]2CCc3nc[nH]c3C2)c2ccccc21 [ramosetron]	–	–	–	–	–	inhibitory effects on abdominal contractions, ramosetron alone ([3]; 0.01 mg/kg, po): maximal inhibitory effects
